Values after ≈ are worked out from the molar mass of the structure shown. Counter-ions that a name gives are not always drawn. Like-named read-outs stand apart in the source and are kept apart here.
Experiments:
[1] = over 24 h; ref [58]; cited from earlier work
[2] = tested on: Phenion®FT Skin Models (keratinocytes and fibroblasts)
rats and mice = conditions: cited from earlier work; for Carcinogenicity: rodent studies, topical for sodium xylene sulfonate, ref [65], [72], [82], [85]
[3] = EpiSkin S9 over 4 h for IQ; ref [58]; cited from earlier work
[4] = Solubility in vehicle and precipitation on the skin; assay type: physicochemical; conditions: for Doses with precipitation on the tissue surface: visual inspection, at cell harvest; for Top dose limited by solubility in acetone: acetone vehicle
[5] = tested on: bone marrow, blood, liver, skin; conditions: cited from earlier work

Compound	Effect on % tail DNA / DNA migration in APC experiment [2]	Effect on % tail DNA / DNA migration in standard experiment [2]	RS Comet assay overall classification [2]	Dose producing signs of strong cytotoxicity that limited the top dose (Phenion®FT Skin Models; human)	also measured
2-Amino-3-methylimidazo[4,5-f]quinolone [IQ]	did not show a statistically significant increase in DNA damage at any dose	moderate increase in % tail DNA was detected in one mid-dose group that was slightly outside the cytotoxicity limits	negative		Metabolism in ex vivo skin [1]: not metabolised; Dose(s) exceeding the cytotoxicity limit in main or APC experiments (Phenion®FT Skin Models): 33.3–300 µg/cm^2; IARC class (rats and mice; ref IARC): 2A; Metabolism by skin S9 [3]: not metabolised
Cc1ccc(N)cc1N [2,4-DAT, 2,4-diaminotoluene]		did not increase the % tail DNA of either cell type	negative	1280 µg/cm^2	Dose(s) exceeding the cytotoxicity limit in main or APC experiments (Phenion®FT Skin Models; human): 1200 µg/cm^2
Cc1c(N)cccc1N [2,6-DAT, 2,6-diaminotoluene]		did not increase the DNA migration	negative	800 µg/cm^2	Dose(s) exceeding the cytotoxicity limit in main or APC experiments (Phenion®FT Skin Models; human): ≥ 160 µg/cm^2
CC(=O)Nc1ccc2c(c1)Cc1ccccc1-2 [2-AAF, 2-acetylaminofluorene]	significant increase in DNA migration at all doses tested	no increase in DNA migration was observed	positive		Cell type(s) with increased DNA migration [2]: increased in both cell types; Dependence of the result on APC [2]: detected in the presence of APC only; Dose(s) with statistically significant increase in % tail DNA, keratinocytes ([2]; human): 80 µg/cm^2; Dose(s) exceeding the cytotoxicity limit in main or APC experiments (Phenion®FT Skin Models; human): 80 µg/cm^2; Doses with precipitation on the tissue surface [4]: ≥ 128 µg/cm^2
Nc1ccc(Cl)cc1 [4-Chloroaniline, 4-chloroaniline]	did not induce an increase in DNA migration	did not increase % tail DNA in either cell type	negative	5 µg/cm^2	Metabolism in ex vivo skin [1]: not metabolised; Dose(s) exceeding the cytotoxicity limit in main or APC experiments (Phenion®FT Skin Models; human): ≥ 10 µg/cm^2; Carcinogenicity (rats and mice): carcinogenic; Metabolism by skin S9 [3]: N-acetylated to N-acetyl-4-chloroaniline
O=[N+]([O-])c1ccc(O)cc1 [4-Nitrophenol]		statistically significant increase in % tail DNA was observed in keratinocytes only at the two lowest doses	negative	48 µg/cm^2	Dose tested without cytotoxicity exceeding the cut-off (Phenion®FT Skin Models; human): 32 µg/cm^2
C[C@@]1(CO)[C@H](O)CC[C@@]2(C)[C@H]1CC[C@H]1C[C@@H]3C[C@@]12CC[C@]3(O)CO [APC, aphidicolin]					Effect on background DNA damage (SC + APC vs SC) [2]: no major impact on the background DNA damage
Cc1cn([C@H]2C[C@H](N=[N+]=[N-])[C@@H](CO)O2)c(=O)[nH]c1=O [AZT, Azidothymidine]		strong dose-dependent increase in % tail DNA in keratinocytes and fibroblasts	positive	700 µg/cm^2	Cell type(s) with increased DNA migration [2]: increased in both cell types
Nc1nc[nH]n1 [Amitrole]	small but statistically significant increase in DNA migration was observed at several doses	no observed cytotoxicity outside the cut-off limits or increases in DNA damage	negative		Dose tested without cytotoxicity exceeding the cut-off (Phenion®FT Skin Models; human): 1600 µg/cm^2
CC1(C)S[C@@H]2[C@H](NC(=O)[C@H](N)c3ccccc3)C(=O)N2[C@H]1C(=O)O [Ampicillin sodium salt]		small but statistically significant increase in DNA migration was seen in fibroblasts only at the high dose	negative		
c1ccc2c(c1)cc1ccc3cccc4ccc2c1c34 [BaP, benzo[a]pyrene]					Dose tested without cytotoxicity exceeding the cut-off (Phenion®FT Skin Models; human): 160 µg/cm^2; solubility ([4]; acetone): 10000 µg/mL (≈ 39.6 mM); Top dose limited by solubility in acetone [4]: 160 µg/cm^2
O=P1(N(CCCl)CCCl)NCCCO1 (stereo not shown) [CP, Cyclophosphamide]		dose-dependent increase in % tail DNA in both cell types	positive	1200 µg/cm^2	Cell type(s) with increased DNA migration [2]: increased in both cell types
C1=Cc2cc3cccc4ccc5ccc1c2c5c43 [CPPE, Cyclopenta[c,d]pyrene]	significant increase in % tail DNA was observed in the absence of limiting cytotoxicity at four of the top five doses tested in the keratinocytes	DNA migration was not increased in either cell type	positive		Cell type(s) with increased DNA migration [2]: keratinocytes only; Dependence of the result on APC [2]: detected in the presence of APC only; Dose producing signs of strong cytotoxicity that limited the top dose (Phenion®FT Skin Models): 75 µg/cm^2
COc1cc(/C=C/C(=O)CC(=O)/C=C/c2ccc(O)c(OC)c2)ccc1O [Curcumin]	did not increase DNA migration in either experiment	marked increase in DNA damage	negative	50 µg/cm^2	Dose(s) exceeding the cytotoxicity limit in main or APC experiments (Phenion®FT Skin Models; human): 50 µg/cm^2; Doses with precipitation on the tissue surface [4]: precipitation was present at all the tested doses
O=C1CCCCC1 [Cyclohexanone]					Dependence of the result on APC [2]: positive or equivocal results in the presence of APC only
OC[C@@H](O)[C@@H](O)[C@H](O)[C@H](O)CO [D-Mannitol, D-mannitol]	did not significantly increase DNA migration	no increase in DNA migration was observed at any dose	negative		Top dose limited by solubility in acetone [4]: 320 µg/cm^2
Cc1c2ccccc2c(C)c2c1ccc1ccccc12 [DMBA, 7,12-dimethylbenz[a]anthracene]					Dependence of the result on APC [2]: detected in the presence of APC only
CN(C)N=O [DMNA, dimethylnitrosamine]			negative		
CCOS(C)(=O)=O [EMS, Ethyl methanesulfonate]		clear and dose-dependent increase in % tail DNA in both cell types	positive	200 µg/cm^2	Cell type(s) with increased DNA migration [2]: increased in both cell types
CCc1cc(C(N)=S)ccn1 [Ethionamide]	no significant increases in % tail DNA or cytotoxicity were observed	failed to increase % tail DNA	negative		Expert call of the performing laboratory in the coded phase [2]: equivocal; Dose(s) with statistically significant increase in DNA migration, fibroblasts ([2]; human): 320 µg/cm^2; Dose tested without cytotoxicity exceeding the cut-off (Phenion®FT Skin Models; human): 240 µg/cm^2; Dose(s) exceeding the cytotoxicity limit in main or APC experiments (Phenion®FT Skin Models; human): 320 µg/cm^2; Top dose limited by solubility in acetone [4]: 320 µg/cm^2
COc1cc([C@@H]2c3cc4c(cc3[C@@H](O[C@@H]3O[C@@H]5CO[C@@H](C)O[C@H]5[C@H](O)[C@H]3O)[C@H]3COC(=O)[C@H]23)OCO4)cc(OC)c1O [Etoposide]				> 120 µg/cm^2	
COS(C)(=O)=O [MMS, methyl methane sulfonate]					Positive control response in standard experiments [2]: clear induction of DNA migration
NC(=S)N(C1CCCCC1)C1CCCCC1 [N,N-dicyclohexyl thiourea]	did not cause any significant increases in % tail DNA	did not induce an increase in % tail DNA in either cell type	negative		Dose producing signs of strong cytotoxicity that limited the top dose (Phenion®FT Skin Models): 200 µg/cm^2; Dose(s) exceeding the cytotoxicity limit in main or APC experiments (Phenion®FT Skin Models): ≥ 160 µg/cm^2; Carcinogenicity (rats and mice): not carcinogenic
CCCCCl [N-butyl chloride]	did not show any significant increases in DNA migration		negative		Dose with statistically significant increase in DNA migration, keratinocytes [2]: 400 µg/cm^2; Dose tested without cytotoxicity exceeding the cut-off (Phenion®FT Skin Models): 1600 µg/cm^2
Oc1cccc(O)c1 [Resorcinol, 1,3-Dihydroxybenzene]				250 µg/cm^2	In vivo micronucleus test in mice [5]: positive; In vivo micronucleus test in rats [5]: no effects
CC(C)(C)c1cc(O)ccc1O [TBHQ, Tert-butylhydroquinone]	small but statistically significant increase in DNA migration at the two highest doses in fibroblasts only	Moderate increases in % tail DNA were observed in this experiment but only at the two highest doses that both exceeded the cytotoxicity limit	negative	40 µg/cm^2	Expert call of the performing laboratory in the coded phase [2]: equivocal; Dose(s) with statistically significant increase in DNA migration, fibroblasts ([2]; human): 16 µg/cm^2; Dose(s) exceeding the cytotoxicity limit in main or APC experiments (Phenion®FT Skin Models; human): 20 µg/cm^2
Sodium xylene sulfonate	no significant increases in % tail DNA	did not induce an increase in % tail DNA in either cell type	negative		Dose producing signs of strong cytotoxicity that limited the top dose (Phenion®FT Skin Models): 512 µg/cm^2; Dose(s) exceeding the cytotoxicity limit in main or APC experiments (Phenion®FT Skin Models): 640 µg/cm^2; Carcinogenicity (rats and mice): negative for carcinogenicity
